The test system of one data set is Fusarium sp. The experiment in a line: Marine-derived fungi growth inhibition (OD405). It counts as cell-based. To be noted: Fusarium, 120 h, 5 days, 26 °C. As for the experimental part: All the biological assays were run by triplicate.
Three strains of marine-derived fungi were kindly provided by Dr. Á. Trigos (University of Veracruz, Mexico). The strains were isolated from reef organisms collected from the Veracruz Reef System and identified as Aspergillus sp., Fusarium sp. and Alternaria sp..
Fungal strains were cultured in Potato-Dextrose Agar (PDA) supplemented with filtered seawater (FSW) (50% v/v) at 26 °C for 5 days prior to experiments. […] Briefly, fungal inocula were prepared by addition of 5 ml of sterile saline solution to the cultures. Gently swabbing released conidia. […] The plates were incubated for 5 days at 26 °C. The calculation of the half-maximal inhibitory concentrations (IC50) was performed using OD405 as endpoint.

The subject of data set [1] is violacein production of C. violaceum CVO26. Kind of data set: Quorum sensing bioassay: violacein production. The settings on record: Chromobacterium violaceum, 18 h, read-out: IC50 (Violacein inhibition). The data set is classed as cell-based, Chromobacterium violaceum. As for the experimental part: (§1) The reporter strain C. violaceum CVO26 (CECT 5999) was used to screen the ability of the products to interfere with violacein production, a QS-regulated phenotype. C. violaceum CVO26 is a mini-Tn5 mutant that depends on an exogenous source of autoinducer (AI) (N-hexanoyl homoserine lactone, HHL) for violacein production. C. violaceum CVO26 was cultured in LB broth (Sigma-Aldrich) supplemented with 25 μg ml^-1 kanamycin. Inocula were prepared by dilution (1:100) of an overnight culture of the reporter strain [49]. One hundred microliters of inoculum with HHL (Sigma-Aldrich, 6 μM) or without the AI were added to 96-well plates containing 100 μl of the appropriate dilutions of the test products in LB. Thus, two sets of plates were prepared. One set of plates (without HHL) was used to evaluate the effect of the products on bacterial growth, whereas the other set of plates (with HHL) was used to evaluate their effect on violacein production. Both sets of plates were incubated at 30 °C with agitation (150 rpm) for 18 h.
(§2) Growth inhibition was quantified in the first batch of plates by re-suspending bacterial pellets and measuring the OD625. From the second batch of plates violacein was extracted and quantified. Briefly, the plates were dried overnight (60 °C) and violacein was re-solubilized by the addition of 200 μl of DMSO. The plates were shaken for 3 h and then the OD590 was determined.
To evaluate the effect of the alkyl triphenylphosphonium salts on QS-regulated phenotypes, an initial screening at the cut-off concentration of 100 μM was conducted with C. violaceum CVO26. The QS model of C. violaceum is relatively simple and consists of an acyl-homoserine lactone synthase (CviI) that produces the AI molecule N-hexanoyl homoserine lactone (HHL, strain ATCC 31532), or N-3-hydroxydecanoyl homoserine lactone (strain ATCC 12472) which is recognized by the cytoplasmic receptor CviR (Fig 4). The reporter strain CVO26 is a CviI::mini-Tn5 mutant of strain ATCC 31532 and thus recognizes HHL. CviR is a DNA-binding transcription factor that activates the expression of the genes encoding the production of violacein, the characteristic purple alkaloid that gives name to the species.
(§3) Indeed, the inhibitions observed in violacein production for long alkyl chains (10–18, 20) were clearly correlated to the biocidal effect exerted by these compounds, with ‘therapeutic ratios’ (IC50 for growth inhibition/IC50 for violacein inhibition) around 1, in general (Table 2). Note that, as the length of the hydrocarbon chain becomes shorter, this ratio increased (8–9). […] To evaluate these compounds in further detail, […] stock solutions were prepared […] to avoid the use of high concentrations of DMSO in the bioassays. […] Serial two-fold dilutions (500–3.9 μM) were assayed. Consequently, the highest amount of DMSO used in the assay was 0.25% (v/v). […] Growth inhibitory effects are only observed at 500 μM, particularly for compound 7 (Fig 6D).

Another data set relates to Artemia salina nauplii. Kind of data set: in vivo. To be noted: instar I nauplii, 24 h, 28 °C. How it is done:
All the biological assays were run by triplicate. […] For the active products, serial dilutions were performed to calculate the half-maximal inhibitory concentrations (IC50) or the minimal inhibitory concentrations (MIC). Unless otherwise stated, the test concentrations were 100, 50, 25, 10, 5, 2.5, 1, 0.5 and 0.1 μM. Dose-response curves were adjusted with GraphPad Prism 5 software using a four-parameter non-linear regression model.
Artemia salina cysts (INVE Aquaculture, Ghent, Belgium) were hatched in brackish water (30 ‰ salinity) at 28 °C with aeration and under constant light. Newly hatched instar I nauplii were harvested for bioassays. Tests were conducted in 96-well plates (15±5 nauplii per well, test volume = 200 μl). The number of dead and alive individuals was recorded after 24 h of incubation at 28 °C and 24-hour photoperiod.

In the next data set the test system is C. violaceum CVO26. Kind of data set: C. violaceum CVO26 growth inhibition (OD625). The data set is classed as cell-based. To be noted: Chromobacterium violaceum, CVO26, 18 h, read-out: IC50 (Growth inhibition). As for the experimental part:
as §1, §2, §3

Data set [2] has as its system V. harveyi BB721 (luxO::Tn5lacZ). Kind of data set: Quorum sensing bioassay: bioluminescence. The data set is classed as cell-based. The settings on record: Vibrio harveyi, 18 h, read-out: IC50 Luminescence BB721. As for the experimental part:
(§4) V. harveyi BB120 (wild type strain), BB170 (luxN::Tn5kan), BB886 (luxPQ::Tn5kan) and BB721 (luxO::Tn5lacZ) were acquired from ATCC. To screen the ability of the compounds to interfere with QS, the test products were serially diluted in 100 μl of Autoinducer Bioassay (AB) medium using white, clear-bottom 96-well microtiter plates (Costar 3610) as assay platform. Aerobic bacterial cultures were incubated overnight (30 °C) and diluted 1:50. One-hundred μl of the diluted cultures were dispensed inside each well in the microtiter plate. That gave a starting cell density of 1–2 x 10^7 cfu ml^-1. The plates were covered with a sterile sealing film. Luminescence and OD600 were monitored every 15 min over 18 h with a multimode plate reader (Perkin-Elmer EnSpire) in order to correlate the effects of the products on both the growth and bioluminescence kinetics.
(§5) Compounds 3–5 and 7 were evaluated in V. harveyi WT and three mutant strains: BB886 (luxPQ::Tn5Kan), unable to detect AI-2; BB170 (luxN::Tn5Kan), unable to detect HAI-1; and BB721 (luxO::Tn5lacZ), a LuxO null mutant that produces maximal luminescence per cell constitutively. In order to take into account the cumulative effects of the compounds, bioluminescence and growth were measured simultaneously every 15 min over 18 h (Fig 7). Accordingly, IC50 values for bacterial luminescence and growth were obtained by integration of the areas under the curves for each tested dose (Table 3). For clarity of the graphs, error bars has been omitted in Fig 7 and only the mean curves are shown.

Data set [3] has as its system V. harveyi BB886 (luxPQ::Tn5kan). Kind of data set: Quorum sensing bioassay: bioluminescence. It counts as cell-based. To be noted: Vibrio harveyi, 18 h, read-out: IC50 Luminescence BB886. How it is done: as §4, §5
The test system of data set [4] is V. harveyi BB170 (luxN::Tn5kan). The experiment in a line: Quorum sensing bioassay: bioluminescence. To be noted: Vibrio harveyi, 18 h, read-out: IC50 Luminescence BB170. It counts as cell-based. As for the experimental part: as §4, §5
Data set [5] relates to V. harveyi BB120 (wild type strain). The experiment in a line: Quorum sensing bioassay: bioluminescence. The data set is classed as cell-based. The settings on record: Vibrio harveyi, 18 h, read-out: IC50 Luminescence WT. How it is done:
as §4, §5

Experimental findings from article PMC4405350, “From Broad-Spectrum Biocides to Quorum Sensing Disruptors and Mussel Repellents: Antifouling Profile of Alkyl Triphenylphosphonium Salts” (PLoS ONE, 2015) are described below.

For `CCCCN[P+](c1ccccc1)(c1ccccc1)c1ccccc1` [Compound 5], the IC50 (usually the point on the concentration scale where inhibition reaches its midpoint) was greater than 100 µM in the data set with Fusarium sp.; 137 µM in data set [1]; greater than 500 µM with C. violaceum CVO26; greater than 500 µM in data set [2]; greater than 500 µM in data set [3]; greater than 500 µM in data set [4]. In data set [5], the concentration for half-maximal inhibition (IC50) is greater than 500 µM. For the same molecule, in the data set with Artemia salina nauplii, the “IC50 A. salina (LC50)” value worked out at 17.2 µM.
